Experimental data reported in patent publication US20240325330A1, “NEW METHOD TO TREAT ACIDOSIS RELATED DISEASES WITH ACETOACETATE” (INSTITUT NATIONAL DE LA SANTÉ ET DE LA RECHERCHE MÉDICALE, priority 2021, published 2024).

What was measured:
[1] = test system: day 3 LA-Mφ (human macrophages under lactic acidosis); assay: Survival of LA-Mφ with autophagy inhibitors; assay type: cell-based; settings: added to day 3 LA-Mφ; data not shown
Description: (§1) Peripheral blood mononuclear cells (PBMC) were obtained from healthy human volunteers (Blood collection center, Angers, France; agreement ANG-2017-01) by standard density-gradient centrifugation on lymphocyte separation medium (Eurobio, Courtaboeuf, France). CD14+ monocytes were then isolated by positive magnetic cell-sorting (Miltenyi Biotec, Bergisch Gladbach, Germany). Monocytes (1×10^6 cells/mL) were cultured in complete medium (CM) consisting of RPMI 1640 (Lonza, Verviers, Belgium) supplemented with 10% fetal calf serum (FCS) (Eurobio), 2 mM L-glutamine, 1 mM sodium pyruvate, 0.1 mM non-essential amino acids, 10 mM HEPES, 100 U/mL penicillin and 100 μg/mL streptomycin (all from Lonza) in the presence of 50 ng/mL GM-CSF (R&D Systems, Minneapolis, MN).
(§2) Experiments were performed in the presence of 10 mM lactic acid (Sigma-Aldrich, St Louis, MO) resulting in a pHe of 6.5 to generate LA-Mφ (lactic acidosis conditioning), 12.35 mM HCl to reach a final pHe of 6.5 and to generate HCl-Mφ(acidosis conditioning), 10 mM sodium lactate (Sigma-Aldrich) to generate lactate-Mφ (lactosis conditioning, pH 7.3), in the absence or presence of 5 mM lithium acetoacetate (AcAc) (Sigma-Aldrich, St Louis, MO).

[2] = test system: Mφ (human monocytes cultured with GM-CSF); assay: Toxicity of lactic acid for macrophages; assay type: cell-based; settings: pH=6.5; data not shown
Description: as §1, §2

| SMILES | survival of LA-Mφ [1] | maximum non-toxic concentration for Mφ [2] |
| --- | --- | --- |
| CC[C@@H](C(=O)[C@@H](C)[C@@H](O)[C@H](C)[C@@H]1O[C@@H]([C@@H](CC)C(=O)O)CC[C@@H]1C)[C@H]1O[C@]2(C=C[C@@H](O)[C@]3(CC[C@@](C)([C@H]4CC[C@](O)(CC)[C@H](C)O4)O3)O2)[C@H](C)C[C@@H]1C [salinomycin] | significantly decreased their survival | – |
| CC(O)C(=O)O (stereo not drawn) [LA, lactic acid] | – | 10 mM |
| CO/C1=C\C(C)=C\[C@@H](C)[C@@H](O)[C@@H](C)C/C(C)=C/C=C/[C@H](OC)[C@@H]([C@@H](C)[C@@H](O)[C@H](C)[C@@]2(O)C[C@@H](O)[C@H](C)[C@@H](C(C)C)O2)OC1=O [BafA1, bafilomycin A1] | significantly decreased their survival | – |
